Experimental data published in US20260373274A1, “PEPTIDE-LINKED DRUG DELIVERY SYSTEM” (priority 2022, published 2026).
Entries after “also recorded” stand apart in the source; their conditions may differ. Where a SMILES comes first, the peptide text is derived from it. [ ]: non-standard residue; d: D form. The star is where a group is joined. X1 = COc1cc2cc(c1Cl)N(C)C(=O)C[C@H](OC(=O)[C@H](C)N(C)C(=O)CCS*)[C@]1(C)O[C@H]1[C@H](C)[C@@H]1C[C@@](O)(NC(=O)O1)[C@H](OC)/C=C/C=C(\C)C2; βAla = NCCC(=O)O; Mpa = O=C(O)CCS

Experiments:
[1] = tested on: UMUC-3; assay: Cell viability and cytotoxicity assay; type: cell-based, human; conditions: 72 h
Experimental: (§1) Cell viability and cytotoxicity assay—Cancer cells (3×10^3/well) were seeded on a flat bottom 96-well plate overnight. […] CellTiter Glo reagent (Promega, Madison, WI) was added in each well (50 μL). The luminescence generated was recorded using a microplate reader (Tecan US Inc., Morrisville, NC). The dose response curves were plotted, and the half maximal inhibitory concentrations (IC50 values) were calculated using Graph Pad Prism 6.0 software.

[2] = tested on: Renca; assay: Cell viability and cytotoxicity assay; type: cell-based, murine; conditions: 72 h
Experimental: as §1

[3] = tested on: panel of BC cell lines; assay: Cell viability and cytotoxicity assay, panel; type: cell-based
Experimental: as §1

[4] = tested on: kidney injury molecule-1 (KIM-1) and neutrophil gelatinase-associated lipocalin (NGAL); assay: Nephrotoxicity studies, urinary renal injury biomarkers by ELISA; type: in vivo, BALB/c mice; conditions: single i.v. dose
Experimental: (§2) The level of the acute renal injury biomarkers, neutrophil gelatinase-associated lipocalin (NGAL) and kidney injury molecule-1 (KIM-1) in the urine samples, were measured using ELISA assays according to the manufacturer's instructions (R&D Systems, Minneapolis, MN). […] All the animals (n=3/group) were euthanized at the end of the treatment and the kidneys were collected and fixed in 10% neutral buffered formalin. The tissues were then processed, embedded in paraffin, sectioned, and stained with H&E. Immunohistochemistry (IHC) for kidney injury (NGAL and KIM-I) was also performed.

[5] = tested on: orthotopic human UMUC-3 tumors; assay: Therapeutic efficacy for treating BC, orthotopic UMUC-3/GFP-Luc xenograft; conditions: for anti-tumor activity of i.v. DM1-Bdd versus i.v. DM1: bioluminescence imaging during 3 once-per-week treatments; for animal survival compared to i.t. MIT / survival after 100 days / tumor growth inhibition compared to i.t. MIT: 0.75 mg/kg weekly for 3 weeks
Text: These animals were immediately euthanized I week after the completion of the treatment schedule.
(§3) Slides were then counterstained with Hematoxylin.

[6] = tested on: Renca/GFP-Luc tumors; assay: Kidney cancer treatment, orthotopic Renca/GFP-Luc syngeneic model; type: in vivo, female BALB/c mice; murine tumor cells
Experimental: Evaluation of DM1-Bdd for Kidney cancer treatment—Renca/GFP-Luc cells ([…]) in PBS (3 μL) were orthotopically implanted into the kidney capsules of 7- to 9-week-old female BALB/c mice (Jackson Laboratory, Bar Harbor, ME) as previously described. The tumor progression was confirmed by bioluminescence imaging. […] The animals were monitored for tumor growth inhibition and survival as described above. Additional mice were used for histopathological analysis (n=4/group).
as §3

[7] = Hematology, complete blood count; type: in vivo, female BALB/c mice
Experimental: (§4) Necropsy—Seven- to 9-week-old female BALB/c mice (n=4/group) were treated weekly with PBS, DM1, DM1-peptide (0.75 mg/kg of drug content), or cisplatin (10 mg/kg) via tail-vein injection (150 μL). At the end of a 3-week treatment, mice were euthanized. The organs/tissues were harvested, fixed in 10% neutral buffered formalin for 2 days. Bones were decalcified in a formic acid solution (Surgipath Decalcifier I; Leica Biosystems, Weltzar, Germany). The samples were then embedded in paraffin, sectioned (5 μm), and stained with H&E for examination by an ACVP board certified anatomic pathologist.
(§5) Hematology and biochemistry—Blood samples were collected via cardiac puncture. A complete blood count, including red blood cell, white blood cell, reticulocyte and platelet counts, with an automated differential leukocyte count, was performed using an IDEXX Procyte DX hematology analyzer (iDEXX, Westbrook. ME). Blood smears were prepared, stained with modified Wright's stain, examined in a blinded fashion by a board-certified veterinary clinical pathologist (T.S.), and imaged using a Nikon Eclipse TE2000-U fluorescent microscope equipped with a photometrics CoolSNAP HQ^2 camera (Nikon Corporation, Tokyo, Japan). The blood was also centrifuged (1,500×G) for 15 min to obtain the serum for biochemical analysis using a Beckman Coulter AU680 analyzer (Beckman Coulter, Brea, CA).

[8] = Serum biochemistry; type: in vivo, female BALB/c mice; conditions: i.v. weekly for 3 weeks, CIS 10 mg/kg; for hepatotoxicity: release of ALP, ALT, and AST / urea nitrogen/creatinine ratio: DM1/DM1-Bdd 0.75 mg/kg
Text: as §4, with “At” for “Necropsy—Seven- to 9-week-old female BALB/c mice (n=4/group) were treated weekly with PBS, DM1, DM1-peptide (0.75 mg/kg of drug content), or cisplatin (10 mg/kg) via tail-vein injection (150 μL). At”
as §5

[9] = tested on: major organs (liver, spleen, heart, lungs, and kidneys); assay: Necropsy, histopathology of major organs; type: in vivo, female BALB/c mice
Text: as §4, with “At” for “Necropsy—Seven- to 9-week-old female BALB/c mice (n=4/group) were treated weekly with PBS, DM1, DM1-peptide (0.75 mg/kg of drug content), or cisplatin (10 mg/kg) via tail-vein injection (150 μL). At”

[10] = In vitro drug release study, DM1-peptide; type: physicochemical; conditions: GSH (1 mM), PBS
Experimental: In vitro drug release study—DM1-peptide conjugates (10 μM of drug content) were incubated in the presence of the reducing agent GSH (1 mM) in PBS buffer (800 μL). At different time intervals (0, 2, 4, 6, 8, 12, 24, and 48 h), a small amount of solution (100 μL) was taken out for HPLC analysis using C18 analytical column. The amount of DM1 active metabolites released overtime was measured (absorbance detected at 254 nm) and then quantified. The experiment was performed independently in triplicate. A similar experiment was performed to quantify the release of aldox. Aldox-peptide conjugates (100 μM of drug content) were incubated in PBS buffer (800 μL) with different pH (7.4 and 5.5) in a glass vial coated with silica to avoid non-specific adsorption on the reaction vessel surfaces. The amount of drug released over time was then measured as described above (absorbance detected at 480 nm). For accurate quantification, all the results were normalized compared to a DOX control incubated in similar conditions.

[11] = tested on: kidneys; assay: Nephrotoxicity studies, kidney histology and immunohistochemistry (NGAL and KIM-1); type: in vivo, BALB/c mice; conditions: 3 days after i.v. administration; CIS 10 mg/kg, DM1-Bdd 0.75 mg/kg of drug content
Experimental: as §3, §2

[12] = one week after completing the treatment course
[13] = i.v., 0.75 mg/kg weekly for 3 weeks
[14] = i.v., 0.75 mg/kg of drug content weekly for 3 weeks
[15] = i.v. weekly for 3 weeks, DM1/DM1-Bdd 0.75 mg/kg, CIS 10 mg/kg

**Q.** For `COc1cc2cc(c1Cl)N(C)C(=O)C[C@H](OC(=O)[C@H](C)N(C)C(=O)CCS)[C@]1(C)O[C@H]1[C@H](C)[C@@H]1C[C@@](O)(NC(=O)O1)[C@H](OC)/C=C/C=C(\C)C2` [DM1, N2′-deacetyl-N2′-(3-mercapto-1-oxopropyl)-maytansine], which “IC50 against UMUC-3” value [1] is on record?
**A.** nanomolar (nM) range

**Q.** And the “potency against UMUC-3 compared to other chemotherapeutics” value [1]?
**A.** more potent than cisplatin (CIS), doxorubicin (DOX) and mitomycin (MIT), and as effective as gemcitabine (GEM)

**Q.** What about the “potency compared to DOX” value [1] of the same compound?
**A.** more potent than DOX

**Q.** What about the “effectiveness against Renca cell line” value [2] of the same compound?
**A.** effective

**Q.** And the “fold more potent than commonly used ITC drugs, including MIT, DOX and CIS” value [3]?
**A.** 100 fold

**Q.** And the “induction of KIM-1 and/or NGAL, 3 days” value ([4]; 3 days)?
**A.** continued induction of KIM-1 and/or NGAL

**Q.** What about the “anti-tumor activity of i.v. DM1-Bdd versus i.v. DM1” value [5] of the same compound?
**A.** similar

**Q.** What about the “animal survival compared to i.t. MIT” value ([5]; i.v.) of the same compound?
**A.** prolonged animal survival

**Q.** And the “survival after 100 days” value ([5]; i.v.)?
**A.** 0%

**Q.** And the “tumor growth inhibition compared to i.t. MIT” value ([5]; i.v.)?
**A.** more effective in inhibiting tumor growth

**Q.** What about the “survival, i.v. or i.t.” value ([6]; i.v. or i.t., 0.75 mg/kg weekly for 3 weeks) of the same compound?
**A.** died

**Q.** And the “tumor in kidneys by histological examination” value [6, 12]?
**A.** large and accompanied with an infiltration of mononuclear cells

**Q.** What about the inflammatory response [7, 13] of the same compound?
**A.** inflammatory response characterized by increased proportions of neutrophils, monocytes, and platelets

**Q.** And the reticulocytes [7, 13]?
**A.** induced reticulocytosis without apparent anemia

**Q.** And the “muscle injury (CK activity)” value ([8]; DM1 0.75 mg/kg)?
**A.** induced muscle injury (CK activity)

**Q.** And the “hepatotoxicity: release of ALP, ALT, and AST” value [8]?
**A.** increases in ALT and AST activities

**Q.** What about the urea nitrogen/creatinine ratio [8] of the same compound?
**A.** increases in ALT and AST activities and BUN/creatinine ratios

**Q.** And the overall toxicity ([9]; i.v. weekly for 3 weeks)?
**A.** evidences of hepatic and renal injury

**Q.** And the “extramedullary hematopoiesis (EMH), splenic and hepatic” value [9, 13]?
**A.** Increased splenic and hepatic EMH

**Q.** With `COc1cc2cc(c1Cl)N(C)C(=O)C[C@H](OC(=O)[C@H](C)N(C)C(=O)CCSSCCC(=O)NCCC(=O)N[C@H](CC(=O)O)C(=O)N[C@H](CC(=O)O)C(=O)NCCC(=O)N[C@H](CC(=O)O)C(=O)N[C@H](CC(=O)O)C(=O)NCCC(=O)N[C@H](CC(=O)O)C(=O)N[C@H](CC(=O)O)C(=O)NCCC(=O)N[C@H](CC(=O)O)C(=O)N[C@H](CC(=O)O)C(N)=O)[C@]1(C)O[C@H]1[C@H](C)[C@@H]1C[C@@](O)(NC(=O)O1)[C@H](OC)/C=C/C=C(\C)C2` [DM1-Bdd] ([Mpa](X1)[βAla][dD][dD][βAla][dD][dD][βAla][dD][dD][βAla][dD][dD]-NH2) as the compound, how does the “drug release in a reducing environment” value [10] read?
**A.** enabling drug release in a reducing environment

**Q.** What about the “time for KIM-1 and NGAL to return to basal levels” value ([4]; 0.75 mg/kg of drug content) of the same compound?
**A.** ≤ 3 days

**Q.** And the “levels of KIM-1 and NGAL in the urine, 1 day” value ([4]; 0.75 mg/kg of drug content, 1 day)?
**A.** slightly increased

**Q.** And the “histologic examination of kidneys” value [11]?
**A.** did not reveal any abnormalities in the kidneys

**Q.** And the “immunoreactivity of kidney sections for KIM-1 and NGAL” value [11]?
**A.** no elevation of the immunoreactivity

**Q.** What about the “treatment outcome of i.v. compared to i.t. administration” value ([5]; 0.75 mg/kg of drug content weekly for 3 weeks) of the same compound?
**A.** better treatment outcome; also recorded: more effective

**Q.** And the “anti-tumor activity of i.v. DM1-Bdd versus i.v. DM1” value [5]?
**A.** similar

**Q.** What about the “survival after 100 days” value ([5]; i.v.) of the same compound?
**A.** 36%

**Q.** What about the “tumor growth inhibition compared to i.t. MIT” value ([5]; i.v.) of the same compound?
**A.** more effective in inhibiting tumor growth

**Q.** What about the “animal survival compared to i.t. MIT” value ([5]; i.v., 0.75 mg/kg) of the same compound?
**A.** prolonged animal survival; also recorded: improved the overall survival

**Q.** What about the “animals for which treatment was curative” value ([5]; i.v., 210 days) of the same compound?
**A.** 21%

**Q.** And the “gross and histologic evidence of tumors in survivor mice” value ([5]; i.v., 210 days)?
**A.** lacked gross and histologic evidence (using GFP and Ki67 immunostaining) of tumors

**Q.** What about the “animals which lacked gross and histologic evidence of tumors” value ([5]; i.v., 210 days after tumor implantation) of the same compound?
**A.** 3 animals

**Q.** And the “tumor size by histology” value ([5]; i.v., end of treatment)?
**A.** smaller

**Q.** What about the GFP-positive cells ([5]; i.v., immunohistochemistry) of the same compound?
**A.** fewer GFP-positive cells

**Q.** What about the “proportion of cells expressing Ki67” value ([5]; i.v., immunohistochemistry) of the same compound?
**A.** lower proportion of cells expressing the proliferation marker (Ki67)

**Q.** And the “survival benefit compared to the free drug” value ([6]; i.v.)?
**A.** significant survival benefit compared to the free drug

**Q.** What about the “bioluminescence signals in the majority of the animals” value [6, 14] of the same compound?
**A.** decreased bioluminescence signals

**Q.** What about the “survival after 160 days” value [6, 14] of the same compound?
**A.** 50%

**Q.** And the tumor progression [6, 14]?
**A.** inhibit tumor progression

**Q.** What about the tumor size [6, 14] of the same compound?
**A.** reduced tumor size

**Q.** And the “animals lacking gross or histologic evidence of the tumor” value [6, 12]?
**A.** approximately 50%

**Q.** And the “tumor in kidneys by histological examination” value [6, 12]?
**A.** Minimal tumor was present

**Q.** What about the “red blood cell, leukocyte, or platelet counts or morphologic features” value [7, 15] of the same compound?
**A.** did not affect the red blood cell, leukocyte, or platelet counts or morphologic features

**Q.** And the “hepatotoxicity: release of ALP, ALT, and AST” value [8]?
**A.** not hepatotoxic, with no significant alteration in the release of ALP, ALT, and AST

**Q.** What about the urea nitrogen/creatinine ratio [8] of the same compound?
**A.** normal

**Q.** And the overall toxicity ([9]; i.v. weekly for 3 weeks)?
**A.** did not induce unwanted toxicity; also recorded: safe toxicity profile

**Q.** And the “histopathology of liver, spleen, heart, lungs, or kidneys” value [9, 15]?
**A.** no morphological evidence of injury in the liver, spleen, heart, lungs, or kidneys
